Read-outs that look alike come from different tables or passages of the source.

In this experiment the test system is yeast cells overexpressing WT alpha-synuclein. Type of experiment: cell-based, Saccharomyces cerevisiae.
Setting [1] is: preliminary study, concentration not given.
Setting [2] is: preliminary study, agent at 5 μM.

Consider `N[C@@H](CO)C(=O)O` [serine], for which, where the note is “preliminary study, agent at 1 mg/ml”, the “ability to alleviate toxicity caused by alpha-synuclein overexpression” value (“ability to alleviate toxicity caused” for short) is recorded as “alleviate toxocity”.
For `N[C@@H](Cc1ccc(O)c(O)c1)C(=O)O` [L-DOPA, L-dihydroxyphenylalanine], under setting [1], the “ability to alleviate toxicity caused” value is given as “alleviate toxocity”.
Consider `NC(N)=O` [urea], for which, where the note is “agent at 1 mg/ml”, the “effect on the growth of yeast cells overexpressing WT alpha-synuclein” value (“effect on the growth” for short) is listed as “negative effect on the growth”.
In the case of `CC[C@@]1(O)C(=O)OCc2c1cc1n(c2=O)Cc2cc3ccccc3nc2-1` [camptothecin], the “effect on the growth” value (agent at 5 μg/ml) is listed as “negative effect on the growth”. Moreover, the “ability to alleviate toxicity caused” value (preliminary study, agent at 0.1 μg/ml) was “alleviate toxocity”.
On to `Oc1c(I)cc(Cl)c2cccnc12` [clioquinol], for which the “ability to alleviate toxicity caused” value under setting [2] is “alleviate toxocity”.
In the case of `Cl.N=C(N)N` [GuHCl], the “effect on the growth” value (agent at 20 (unit not given)) was “negative effect on the growth”.
With `C=CCC(N)C(=O)O` (racemic) [DL-C-allylglycine], under “preliminary study, agent at 0.025 mg/ml”, the “ability to alleviate toxicity caused” value was “alleviate toxocity”.
On to `C[C@]12CC[C@H]3[C@@H](CCC4=CC(=O)CC[C@@]43C)[C@@H]1CC[C@@H]2C(=O)CO` [Deoxycorticosterone], for which, under setting [1], the “ability to alleviate toxicity caused” value is “alleviate toxocity”.
Turning to `[Ca+2].[Cl-].[Cl-]` [CaCl2], the “effect on the growth” value (agent at 0.5 M) is on record as “negative effect on the growth”.
`CC1=CC(=O)c2ccccc2C1=O` [menadione]: for the setting “agent at 20-50 μM”, the “effect on the growth” value is “negative effect on the growth”.
For the molecule `C[n+]1ccc(-c2cc[n+](C)cc2)cc1` [paraquat], the “effect on the growth” value (agent at 1 mM) is listed as “negative effect on the growth”.
On to `O=S(=O)([O-])[O-].[Fe+2]` [FeSO4], for which the “effect on the growth” value (agent at 20 mM) is “negative effect on the growth”.
With `NC[C@@H]1O[C@H](O[C@H]2[C@@H](O)[C@H](O[C@@H]3[C@@H](O)[C@H](N)C[C@H](N)[C@H]3O[C@H]3O[C@H](CO)[C@@H](O)[C@H](O)[C@H]3N)O[C@@H]2CO)[C@H](N)[C@@H](O)[C@@H]1O` [paromomycin], the “ability to alleviate toxicity caused” value (preliminary study, agent at 200 μg/ml) is “alleviate toxocity”.
With `O=S(=O)([O-])[O-].O=S(=O)([O-])[O-].O=S(=O)([O-])[O-].[Fe+3].[Fe+3]` [Fe2(SO4)3], for the setting “agent at 8.5 mM”, the “effect on the growth” value is “negative effect on the growth”.
Take `O=C[C@@H](O)[C@H](O)[C@H](O)CO` [arabinose]: for the setting “agent at 2% in medium”, the “effect on the growth” value is on record as “negative effect on the growth”.
As to bleomycin, the “effect on the growth” value (agent at 1 μg/ml) is recorded as “negative effect on the growth”.
With `[Cl][Fe][Cl]` [FeCl2], the “effect on the growth” value (agent at 10 mM) is reported as “negative effect on the growth”, the “effect on the growth” value (agent at 15 mM) is recorded as “negative effect on the growth”, the “effect on the growth” value (agent at 23 mM) was “negative effect on the growth” and the “effect on the growth” value (agent at 50 mM) was “negative effect on the growth”.
Turning to `N[C@@H](CCC(=O)N[C@@H](CS)C(=O)NCC(=O)O)C(=O)O` [glutathione], the “ability to alleviate toxicity caused” value is reported as “alleviate toxocity”.
Consider `O=S(=O)([O-])[O-].[Cu+2]` [CuSo4], for which the “effect on the growth” value (agent at 2.5 mM) was “negative effect on the growth” and the “effect on the growth” value (agent at 5 mM) was “negative effect on the growth”.
Turning to `[Cl-].[Rb+]` [RbCl], the “effect on the growth” value (agent at 0.2 M) is “negative effect on the growth”.
Turning to `[Cl-].[Cs+]` [CsCl], for the setting “agent at 0.1 M”, the “effect on the growth” value is “negative effect on the growth”.
As for `C[C@H]1CCC/C=C/[C@@H]2C[C@H](O)C[C@H]2[C@H](O)/C=C/C(=O)O1` [brefeldin A], for the setting “agent at 100 μg/ml”, the “effect on the growth” value is reported as “negative effect on the growth”.
In the case of `[Cl-].[Cl-].[Co+2]` [CoCl2], the “effect on the growth” value was “negative effect on the growth”.
Consider `CN[C@H]1C[C@@H](N)[C@H](O)[C@@H](O[C@@H]2O[C@H](CO)[C@H](O)[C@@H]3OC4(O[C@H]23)O[C@H]([C@@H](N)CO)[C@H](O)[C@H](O)[C@H]4O)[C@@H]1O` (some centres unmarked) [Hygromycin B], for which, for the setting “preliminary study, agent at 50 μg/ml”, the “ability to alleviate toxicity caused” value is on record as “alleviate toxocity”.
As for `NC(=O)NO` [hydroxyurea], the “effect on the growth” value (agent at 5 mg/ml) was “negative effect on the growth”.
`[O]=[V]([O-])([O-])[O-]` [vanadate]: the “effect on the growth” value reads like this: (agent at 0.1 mM) “negative effect on the growth”; (agent at 1 mM) “negative effect on the growth”; (agent at 2 mM) “negative effect on the growth”; (agent at 4 mM) “negative effect on the growth”; (agent at 7 mM+KCl) “negative effect on the growth”.
Turning to `C[C@@H](O)CC(=O)O` [(R)-(−)-3-hydroxybutirate], the “ability to alleviate toxicity caused” value under setting [1] is “alleviate toxocity”.
For the molecule `Nc1c(/N=N/c2ccc(-c3ccc(/N=N/c4cc(S(=O)(=O)O)c5ccccc5c4N)cc3)cc2)cc(S(=O)(=O)O)c2ccccc12` [Congo Red], the “ability to alleviate toxicity caused” value under setting [2] was “alleviate toxocity”.
Regarding `O=C(O)c1cc(/N=N/c2ccc(-c3ccc(/N=N/c4ccc(O)c(C(=O)O)c4)cc3)cc2)ccc1O` [chrysamine G], the “ability to alleviate toxicity caused” value (preliminary study, agent at 1.0 μM) is given as “alleviate toxocity”.
With `CCN(CC)CCCC(C)Nc1ccnc2cc(Cl)ccc12` (centres unmarked) [chloroquine], the “ability to alleviate toxicity caused” value (preliminary study, agent at 4.2 μM) was “alleviate toxocity”.
On to `O=C(O)CCCc1ccc(N(CCCl)CCCl)cc1` [chlorambucil], for which the “effect on the growth” value (agent at 3 mM) is “negative effect on the growth”.
Consider `[Cl-].[Cl-].[Sr+2]` [SrCl2], for which, where the note is “agent at 0.5 M”, the “effect on the growth” value is listed as “negative effect on the growth”.
On to `O=S(=O)([O-])[O-].[Mg+2]` [MgSO4], for which the “effect on the growth” value (agent at 0.5 M) is “negative effect on the growth”.
Turning to protamine sulphate, the “ability to alleviate toxicity caused” value (preliminary study, agent at 250 μM) is reported as “alleviate toxocity”.
Regarding `NC=O` [formamide], the “effect on the growth” value (agent at 2% in medium) is “negative effect on the growth”.
On to `O=c1cn[nH]c(=O)[nH]1` [6-azauracil], for which the “effect on the growth” value (agent at 30 μg/ml) is on record as “negative effect on the growth”.
As to `[Cl-].[Cl-].[Mg+2]` [MgCl2], the “effect on the growth” value (agent at 0.5 M) is “negative effect on the growth”.
As for `CCSCC[C@H](N)C(=O)O` [L-ethionine], the “ability to alleviate toxicity caused” value (preliminary study, agent at 1 μg/ml) is on record as “alleviate toxocity”.

These data come from patent publication US9518284B2 (priority 2001, dated 2016).
